From patent US20250324971A1, “HERBICIDAL DERIVATIVES” (SYNGENTA CROP PROTECTION AG, priority 2022, published 2025) come the findings set out here.

Common to all, as to assay type: in vivo
Test [1] has as its system Ipomoea hederacea (IPOHE). Nature of the test: Post-Emergence Test (herbicidal, glasshouse pots). As to conditions: rate 1000 g/ha; evaluated after 13 days. The method, then: (§1) Seeds of a variety of test species are sown in standard soil in pots (Setaria faberi (SETFA), Ipomoea hederacea (IPOHE), Echinochloa crus-galli (ECHCG), (Amaranthus retoflexus (AMARE), Zea mays (ZEAMX), and Amaranthus palmeri (AMAPA)). After 8 days cultivation under controlled conditions in a glasshouse (at 24° C./16° C., day/night; 14 hours light; 65% humidity), the plants arm sprayed with an aqueous spray solution derived from the formulation of the technical active ingredient in acetone/water (50:50) solution containing 0.5% Tween 20 (polyoxyethylene sorbitan monolaurate, CAS RN 9005-84-5). Rate of application is shown in g/ha in the tables below. The test plants are then grown in a glasshouse under controlled conditions in a glasshouse (at 24° C./16° C., day/night; 14 hours light; 65% humidity) and watered twice daily. After 13 days the test is evaluated for the percentage damage caused to the plant. The biological activities are shown in the following table on a five-point scale (5=81-100%; 4=61-80%; 3=41-60%; 2=21-40%; 1=0-20%; -=not tested).

The subject of test [2] is Amaranthus retoflexus (AMARE). The test is described as follows: Post-Emergence Test (herbicidal, glasshouse pots). As to conditions: rate 1000 g/ha; evaluated after 13 days. The method, then:
as §1

In test [3] the test system is Amaranthus palmeri (AMAPA). The test is described as follows: Post-Emergence Test (herbicidal, glasshouse pots). As to conditions: rate 1000 g/ha; evaluated after 13 days. As for the experimental part: as §1
The subject of test [4] is Zea mays (ZEAMX). Nature of the test: Post-Emergence Test (herbicidal, glasshouse pots). As to conditions: rate 1000 g/ha; evaluated after 13 days. As for the experimental part:
as §1

For test [5], the system named is Echinochloa crus-galli (ECHCG). Nature of the test: Post-Emergence Test (herbicidal, glasshouse pots). As to conditions: rate 1000 g/ha; evaluated after 13 days. The method, then:
as §1

Test [6] relates to Ipomoea hederacea (IPOHE). The test is described as follows: Pre-Emergence Test (herbicidal, glasshouse pots). As to conditions: rate 1000 g/ha, evaluated after 13 days, five-point scale.
For test [7], the system named is Amaranthus palmeri (AMAPA). The test is described as follows: Pre-Emergence Test (herbicidal, glasshouse pots). As to conditions: rate 1000 g/ha, evaluated after 13 days, five-point scale.
For test [8], the system named is Amaranthus retoflexus (AMARE). Nature of the test: Pre-Emergence Test (herbicidal, glasshouse pots). As to conditions: rate 1000 g/ha, evaluated after 13 days, five-point scale.
For test [9], the system named is Echinochloa crus-galli (ECHCG). The test is described as follows: Pre-Emergence Test (herbicidal, glasshouse pots). As to conditions: rate 1000 g/ha, evaluated after 13 days, five-point scale.
Test [10] deals with Zea mays (ZEAMX). The test is described as follows: Pre-Emergence Test (herbicidal, glasshouse pots). As to conditions: rate 1000 g/ha, evaluated after 13 days, five-point scale.

Regarding `CCn1c(Sc2ccc(F)cc2)cc(=O)c(C(=O)O)c1-c1ccc(Cl)c(Cl)c1` [Compound 10, 2-(3,4-dichlorophenyl)-1-ethyl-6-(4-fluorophenyl)sulfanyl-4-oxo-pyridine-3-carboxylic acid], the “Post-Emergence Test IPHOE percentage damage (five-point scale)” value in [1] is reported as 2 (2=21-40%). Also, the “Post-Emergence Test AMARE percentage damage (five-point scale)” value in test [2] is 1 (1=0-20%). In addition, the “Post-Emergence Test AMAPA percentage damage (five-point scale)” value in test [3] is listed as 1 (1=0-20%). For the same molecule, the “Post-Emergence Test ZEAMX percentage damage (five-point scale)” value in the test on Zea mays (ZEAMX) [4] is 1 (1=0-20%). Further, the “Post-Emergence Test ECHCG percentage damage (five-point scale)” value in test [5] is listed as 2 (2=21-40%). In addition, in test [6], the “percentage damage caused to the plant, IPHOE” value is listed as 2 (2=21-40%). The “percentage damage caused to the plant, AMAPA” value in test [7] amounted to 0. Further, the “percentage damage caused to the plant, AMARE” value in test [8] is 1 (1=0-20%). The “percentage damage caused to the plant, ECHCG” value in test [9] is 2 (2=21-40%). Also, in the test on Zea mays (ZEAMX) [10], the “percentage damage caused to the plant, ZEAMX” value is given as 0.
In the case of `CCn1c(Oc2ccc(OC)cc2)cc(=O)c(C(=O)O)c1-c1ccc(Cl)c(Cl)c1` [Compound 11, 2-(3,4-dichlorophenyl)-1-ethyl-6-(4-methoxyphenoxy)-4-oxo-pyridine-3-carboxylic acid], the “Post-Emergence Test IPHOE percentage damage (five-point scale)” value in test [1] is 3 (3=41-60%). The “Post-Emergence Test AMARE percentage damage (five-point scale)” value in test [2] is on record as 5 (5=81-100%). Moreover, the “Post-Emergence Test AMAPA percentage damage (five-point scale)” value in [3] is listed as 5 (5=81-100%). The “Post-Emergence Test ZEAMX percentage damage (five-point scale)” value in the test with Zea mays (ZEAMX) [4] is 2 (2=21-40%). In test [5], the “Post-Emergence Test ECHCG percentage damage (five-point scale)” value is 1 (1=0-20%). Besides, in [6], the “percentage damage caused to the plant, IPHOE” value was 5 (5=81-100%). The “percentage damage caused to the plant, AMAPA” value in [7] was 1 (1=0-20%). The “percentage damage caused to the plant, AMARE” value in test [8] is listed as 2 (2=21-40%). The “percentage damage caused to the plant, ECHCG” value in test [9] came to 0. Further, the “percentage damage caused to the plant, ZEAMX” value in the test with Zea mays (ZEAMX) [10] is reported as 1 (1=0-20%).
Turning to `CCn1c(Oc2cccc(F)c2)cc(=O)c(C(=O)O)c1-c1ccc(Cl)c(Cl)c1` [Compound 12, 2-(3,4-dichlorophenyl)-1-ethyl-6-(3-fluorophenoxy)-4-oxo-pyridine-3-carboxylic acid], the “Post-Emergence Test IPHOE percentage damage (five-point scale)” value in test [1] is 5 (5=81-100%). In addition, in test [2], the “Post-Emergence Test AMARE percentage damage (five-point scale)” value is on record as 5 (5=81-100%). Besides, the “Post-Emergence Test AMAPA percentage damage (five-point scale)” value in test [3] was 5 (5=81-100%). Also, the “Post-Emergence Test ZEAMX percentage damage (five-point scale)” value in the test with Zea mays (ZEAMX) [4] is 4 (4=61-80%). Moreover, the “Post-Emergence Test ECHCG percentage damage (five-point scale)” value in [5] was 4 (4=61-80%). Also, the “percentage damage caused to the plant, IPHOE” value in test [6] is recorded as 5 (5=81-100%). Moreover, in test [7], the “percentage damage caused to the plant, AMAPA” value is on record as 4 (4=61-80%). In [8], the “percentage damage caused to the plant, AMARE” value is recorded as 4 (4=61-80%). In addition, in test [9], the “percentage damage caused to the plant, ECHCG” value is 5 (5=81-100%). For the same molecule, the “percentage damage caused to the plant, ZEAMX” value with Zea mays (ZEAMX) [10] is given as 4 (4=61-80%).
Consider `CCn1c(Oc2cncc(Cl)c2)cc(=O)c(C(=O)O)c1-c1ccc(Cl)c(Cl)c1` [Compound 13, 6-[(5-chloro-3-pyridyl)oxy]-2-(3,4-dichlorophenyl)-1-ethyl-4-oxo-pyridine-3-carboxylic acid], for which the “Post-Emergence Test IPHOE percentage damage (five-point scale)” value in [1] was 4 (4=61-80%). Besides, in test [2], the “Post-Emergence Test AMARE percentage damage (five-point scale)” value is reported as 5 (5=81-100%). In addition, the “Post-Emergence Test AMAPA percentage damage (five-point scale)” value in test [3] is reported as 4 (4=61-80%). Further, the “Post-Emergence Test ZEAMX percentage damage (five-point scale)” value in the test on Zea mays (ZEAMX) [4] was 4 (4=61-80%). Further, the “Post-Emergence Test ECHCG percentage damage (five-point scale)” value in [5] was 5 (5=81-100%). Moreover, the “percentage damage caused to the plant, IPHOE” value in test [6] was 5 (5=81-100%). Besides, the “percentage damage caused to the plant, AMAPA” value in test [7] is reported as 4 (4=61-80%). Moreover, the “percentage damage caused to the plant, AMARE” value in [8] is reported as 5 (5=81-100%). Further, the “percentage damage caused to the plant, ECHCG” value in test [9] is given as 4 (4=61-80%). Further, the “percentage damage caused to the plant, ZEAMX” value in the test on Zea mays (ZEAMX) [10] is listed as 2 (2=21-40%).
Take `CCn1c(Oc2cc(F)cc(F)c2)cc(=O)c(C(=O)O)c1-c1ccc(Cl)c(Cl)c1` [Compound 15, 2-(3,4-dichlorophenyl)-6-(3,5-difluorophenoxy)-1-ethyl-4-oxo-pyridine-3-carboxylic acid]: the “Post-Emergence Test IPHOE percentage damage (five-point scale)” value in test [1] was 3 (3=41-60%). For the same molecule, the “Post-Emergence Test AMARE percentage damage (five-point scale)” value in test [2] was 4 (4=61-80%). Also, in test [3], the “Post-Emergence Test AMAPA percentage damage (five-point scale)” value is 3 (3=41-60%). Moreover, the “Post-Emergence Test ZEAMX percentage damage (five-point scale)” value in the test with Zea mays (ZEAMX) [4] was 3 (3=41-60%). For the same molecule, the “Post-Emergence Test ECHCG percentage damage (five-point scale)” value in test [5] is 3 (3=41-60%). Moreover, the “percentage damage caused to the plant, IPHOE” value in [6] was 3 (3=41-60%). Moreover, the “percentage damage caused to the plant, AMAPA” value in test [7] is given as 1 (1=0-20%). In addition, in test [8], the “percentage damage caused to the plant, AMARE” value is recorded as 1 (1=0-20%). The “percentage damage caused to the plant, ECHCG” value in test [9] is recorded as 4 (4=61-80%). Also, the “percentage damage caused to the plant, ZEAMX” value in the test on Zea mays (ZEAMX) [10] is 1 (1=0-20%).
Take `CCn1c(Oc2cccc(Cl)c2Cl)cc(=O)c(C(=O)O)c1-c1ccc(Cl)c(Cl)c1` [Compound 17, 6-(2,3-dichlorophenoxy)-2-(3,4-dichlorophenyl)-1-ethyl-4-oxo-pyridine-3-carboxylic acid]: the “Post-Emergence Test IPHOE percentage damage (five-point scale)” value in test [1] is recorded as 0. Moreover, the “Post-Emergence Test AMARE percentage damage (five-point scale)” value in test [2] was 1 (1=0-20%). In addition, the “Post-Emergence Test AMAPA percentage damage (five-point scale)” value in [3] is given as 1 (1=0-20%). Besides, in the test on Zea mays (ZEAMX) [4], the “Post-Emergence Test ZEAMX percentage damage (five-point scale)” value is recorded as 1 (1=0-20%). Moreover, in [5], the “Post-Emergence Test ECHCG percentage damage (five-point scale)” value was 1 (1=0-20%). Further, the “percentage damage caused to the plant, IPHOE” value in [6] is given as 0. The “percentage damage caused to the plant, AMAPA” value in test [7] is given as 0. Moreover, in [8], the “percentage damage caused to the plant, AMARE” value is on record as 0. The “percentage damage caused to the plant, ECHCG” value in test [9] amounted to 0. Besides, the “percentage damage caused to the plant, ZEAMX” value with Zea mays (ZEAMX) [10] was 1 (1=0-20%).
As to `CCn1c(Oc2ccc(Cl)c(Cl)c2)cc(=O)c(C(=O)O)c1-c1ccc(Cl)c(Cl)c1` [Compound 18, 6-(3,4-dichlorophenoxy)-2-(3,4-dichlorophenyl)-1-ethyl-4-oxo-pyridine-3-carboxylic acid], the “Post-Emergence Test IPHOE percentage damage (five-point scale)” value in test [1] is recorded as 1 (1=0-20%). Moreover, the “Post-Emergence Test AMARE percentage damage (five-point scale)” value in test [2] is reported as 1 (1=0-20%). Moreover, the “Post-Emergence Test AMAPA percentage damage (five-point scale)” value in test [3] is listed as 1 (1=0-20%). Further, the “Post-Emergence Test ZEAMX percentage damage (five-point scale)” value in the test with Zea mays (ZEAMX) [4] is reported as 1 (1=0-20%). For the same molecule, the “Post-Emergence Test ECHCG percentage damage (five-point scale)” value in test [5] is given as 0. The “percentage damage caused to the plant, IPHOE” value in [6] came to 0. The “percentage damage caused to the plant, AMAPA” value in test [7] was 0. Besides, the “percentage damage caused to the plant, AMARE” value in test [8] amounted to 0. Further, the “percentage damage caused to the plant, ECHCG” value in test [9] is 0. For the same molecule, the “percentage damage caused to the plant, ZEAMX” value in the test on Zea mays (ZEAMX) [10] is 0.
As for `CCn1c(Nc2ccc(C3CC3)cc2)cc(=O)c(C(=O)O)c1-c1ccc(Cl)c(Cl)c1` [Compound 22], the “percentage damage caused to the plant, IPHOE” value in test [6] is reported as 0. For the same molecule, the “percentage damage caused to the plant, AMAPA” value in test [7] came out at 0. The “percentage damage caused to the plant, AMARE” value in test [8] is 1 (1=0-20%). The “percentage damage caused to the plant, ECHCG” value in test [9] worked out at 0. Moreover, in the test with Zea mays (ZEAMX) [10], the “percentage damage caused to the plant, ZEAMX” value stood at 0.
Regarding `CCn1c(Nc2cccc(C)n2)cc(=O)c(C(=O)O)c1-c1ccc(Cl)c(Cl)c1` [Compound 32, 2-(3,4-dichlorophenyl)-1-ethyl-6-[(6-methyl-2-pyridyl)amino]-4-oxo-pyridine-3-carboxylic acid], the “Post-Emergence Test IPHOE percentage damage (five-point scale)” value in test [1] is listed as 1 (1=0-20%). Besides, in test [2], the “Post-Emergence Test AMARE percentage damage (five-point scale)” value is listed as 4 (4=61-80%). Also, the “Post-Emergence Test AMAPA percentage damage (five-point scale)” value in [3] is listed as 3 (3=41-60%). Moreover, in the test on Zea mays (ZEAMX) [4], the “Post-Emergence Test ZEAMX percentage damage (five-point scale)” value is 1 (1=0-20%). In test [5], the “Post-Emergence Test ECHCG percentage damage (five-point scale)” value is listed as 2 (2=21-40%).
